Results: paper PMC4687966 (Journal of medicinal chemistry, 2015)

Key:
Mtb BioA [1] = target: T1, Mtb BioA (Mycobacterium tuberculosis, UniProt P9WQ81); assay type: binding; details: for KA / ΔH / −TΔS / ΔG: 25 °C; for KA / ΔH: 100 µM BioA, pH 7.5; for −TΔS: from ΔG = ΔH − TΔS; for ΔG: ΔG = −RT ln KA; for LE (ligand efficiency): LE = (−ΔG)/N, N = number of non-hydrogen atoms
Mtb BioA [2] = target: T1, Mtb BioA; experiment: Differential scanning fluorimetry; assay type: binding; details: DSF; holo BioA Tm 85 °C

T1 sequence (P9WQ81 whole entry): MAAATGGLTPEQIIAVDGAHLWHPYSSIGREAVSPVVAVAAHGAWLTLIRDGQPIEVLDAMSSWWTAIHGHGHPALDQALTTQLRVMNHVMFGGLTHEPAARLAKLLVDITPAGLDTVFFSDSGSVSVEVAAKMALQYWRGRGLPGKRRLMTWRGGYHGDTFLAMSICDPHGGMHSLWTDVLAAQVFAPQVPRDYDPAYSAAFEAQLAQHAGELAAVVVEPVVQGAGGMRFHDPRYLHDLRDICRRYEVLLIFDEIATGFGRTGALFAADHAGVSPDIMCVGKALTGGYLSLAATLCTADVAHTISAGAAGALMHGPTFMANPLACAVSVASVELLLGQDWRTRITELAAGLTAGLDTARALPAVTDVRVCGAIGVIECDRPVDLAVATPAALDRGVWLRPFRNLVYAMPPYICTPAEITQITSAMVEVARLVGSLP

Row | SMILES | ΔH (enthalpic stabilization) (Mtb BioA [1]; ITC) [kcal/mol] | −TΔS (binding entropy) (Mtb BioA [1]; ITC) | KA (Mtb BioA [1]; ITC) | ΔH (Mtb BioA [1]; ITC) [kcal/mol] | −TΔS (Mtb BioA [1]; ITC) [kcal/mol] | ΔG (Mtb BioA [1]; ITC) [kcal/mol] | LE (ligand efficiency) (Mtb BioA [1]) | Tm of BioA with compound (Mtb BioA [2]) [°C] | Improvement in KD over the parent fragment F5 (Mtb BioA [1]; ITC) [fold]
1 | CNCc1ccc(Cn2cccn2)cc1 [F5] | -12.9 | +6.2 kcal/mol | 8.6 ± 0.1 10^4 M^−1 | -12.9 ± 0.6 | 6.2 ± 0.6 | -6.7 ± 0.0 | 0.45 | – | –
2 | CC(=O)Nc1ccc2c(c1)C=CC2=O [F9] | – | – | 4.6 ± 0.3 10^4 M^−1 | -3.3 ± 0.2 | -3.0 ± 0.2 | -6.3 ± 0.0 | 0.45 | – | –
3 | NCc1ccc(Cn2cc(Cl)cn2)cc1 [F5.1] | – | – | 14.9 ± 1.7 10^4 M^−1 | -11.3 ± 0.5 | 4.3 ± 0.5 | -7.0 ± 0.1 | 0.47 | 73 | 1.7
4 | O=C(c1ccccc1)C1CCNCC1 [F7] | – | – | 2.4 ± 0.4 10^4 M^−1 | -4.9 ± 0.2 | -1.1 ± 0.2 | -6.0 ± 0.1 | 0.43 | – | –
5 | NC(=O)c1ccc(-c2ccccn2)s1 [F2] | – | – | 14.6 ± 1.3 10^4 M^−1 | -5.4 ± 0.0 | -1.6 ± 0.1 | -7.0 ± 0.1 | 0.50 | – | –
6 | NCc1nc2ccccc2s1 [F10] | – | – | 3.3 ± 0.5 10^4 M^−1 | -1.4 ± 0.2 | -4.8 ± 0.1 | -6.1 ± 0.1 | 0.55 | – | –
7 | NC(=O)c1ccc(-n2ccnc2)cc1 [F3] | – | – | 6.8 ± 1.3 10^4 M^−1 | -6.3 ± 0.2 | -0.2 ± 0.1 | -6.6 ± 0.1 | 0.47 | – | –
